# Organism: Rattus norvegicus
# Test: DrugMatrix - Regimen: Daily Repeat
# Assay type: toxicity, organism-based, Sprague-Dawley
# Design: regimen Daily Repeat, gender Male, age 6-8 weeks
# Details: in vivo, po, route oral GAVAGE, vehicle .5 % CMC; for ABSOLUTE BASOPHIL / ABSOLUTE EOSINOPHIL / ABSOLUTE LYMPHOCYTE / ABSOLUTE MONOCYTE / ABSOLUTE SEGMENTED NEUTROPHIL / BASOPHIL / EOSINOPHIL / ERYTHROCYTE COUNT / HEMATOCRIT / HEMOGLOBIN / LEUKOCYTE COUNT / LYMPHOCYTE / MEAN CORPUSCULAR HEMOGLOBIN / MEAN CORPUSCULAR HEMOGLOBIN CONCENTRATION / MEAN CORPUSCULAR VOLUME / MONOCYTE / NEUTROPHIL / NUCLEATED RED BLOOD CELLS / PLATELET COUNT: tissue Blood; for ALANINE AMINOTRANSFERASE / ALBUMIN / ALKALINE PHOSPHATASE / ASPARTATE AMINOTRANSFERASE / BLOOD UREA NITROGEN / CARBON DIOXIDE / CHLORIDE / CHOLESTEROL / CREATINE PHOSPHOKINASE / CREATININE / GLUCOSE / LACTATE DEHYDROGENASE / LIPASE / PHOSPHORUS / POTASSIUM / SODIUM / TOTAL BILIRUBIN / TOTAL PROTEIN / URIC ACID: tissue Plasma
# [1] = 60 mg/kg, 72 h, dose level Low, time 3 day
# [2] = 60 mg/kg, 120 h, dose level Low, time 5 day
# [3] = 1200 mg/kg, 72 h, dose level High, time 3 day
# [4] = 1200 mg/kg, 120 h, dose level High, time 5 day
smiles,measurement,setting,value
CCS(=O)(=O)CCn1c([N+](=O)[O-])cnc1C [TINIDAZOLE],ABSOLUTE BASOPHIL,[1],0 CELLS/uL
same,ABSOLUTE EOSINOPHIL,[1],339 CELLS/uL
same,ABSOLUTE LYMPHOCYTE,[1],11000.67 CELLS/uL
same,ABSOLUTE MONOCYTE,[1],171.33 CELLS/uL
same,ABSOLUTE SEGMENTED NEUTROPHIL,[1],989 CELLS/uL
same,BASOPHIL,[1],0%
same,EOSINOPHIL,[1],2.67%
same,ERYTHROCYTE COUNT,[1],5.79 x10E6/uL
same,HEMATOCRIT,[1],34.93%
same,HEMOGLOBIN,[1],13.13 G/DL
same,LEUKOCYTE COUNT,[1],12.5 x10E3/uL
same,LYMPHOCYTE,[1],88%
same,MEAN CORPUSCULAR HEMOGLOBIN,[1],22.67 pg
same,MEAN CORPUSCULAR HEMOGLOBIN CONCENTRATION,[1],37.67 G/DL
same,MEAN CORPUSCULAR VOLUME,[1],60.2 fL
same,MONOCYTE,[1],1.33%
same,NEUTROPHIL,[1],8%
same,NUCLEATED RED BLOOD CELLS,[1],0 /100WBC
same,PLATELET COUNT,[1],1415.67 x10E3/uL
same,ALANINE AMINOTRANSFERASE,[1],51.33 u/L
same,ALBUMIN,[1],4.33 G/DL
same,ALKALINE PHOSPHATASE,[1],361.33 u/L
same,ASPARTATE AMINOTRANSFERASE,[1],96.67 u/L
same,BLOOD UREA NITROGEN,[1],14.67 mg/dL
same,CARBON DIOXIDE,[1],26 mmol/L
same,CHLORIDE,[1],105 MEQ/L
same,CHOLESTEROL,[1],71 mg/dL
same,CREATINE PHOSPHOKINASE,[1],896 u/L
same,CREATININE,[1],0.17 mg/dL
same,GLUCOSE,[1],168 mg/dL
same,LACTATE DEHYDROGENASE,[1],108.33 u/L
same,LIPASE,[1],9 u/L
same,PHOSPHORUS,[1],14.2 mg/dL
same,POTASSIUM,[1],6.01 MEQ/L
same,SODIUM,[1],145.6 MEQ/L
same,TOTAL BILIRUBIN,[1],0.23 mg/dL
same,TOTAL PROTEIN,[1],5.87 G/DL
same,URIC ACID,[1],2.47 mg/dL
same,ABSOLUTE BASOPHIL,[2],0 CELLS/uL
same,ABSOLUTE EOSINOPHIL,[2],103.33 CELLS/uL
same,ABSOLUTE LYMPHOCYTE,[2],13904.67 CELLS/uL
same,ABSOLUTE MONOCYTE,[2],205.33 CELLS/uL
same,ABSOLUTE SEGMENTED NEUTROPHIL,[2],1020 CELLS/uL
same,BASOPHIL,[2],0%
same,EOSINOPHIL,[2],0.67%
same,ERYTHROCYTE COUNT,[2],5.73 x10E6/uL
same,HEMATOCRIT,[2],35.5%
same,HEMOGLOBIN,[2],13.43 G/DL
same,LEUKOCYTE COUNT,[2],15.23 x10E3/uL
same,LYMPHOCYTE,[2],91.33%
same,MEAN CORPUSCULAR HEMOGLOBIN,[2],23.43 pg
same,MEAN CORPUSCULAR HEMOGLOBIN CONCENTRATION,[2],37.83 G/DL
same,MEAN CORPUSCULAR VOLUME,[2],61.97 fL
same,MONOCYTE,[2],1.33%
same,NEUTROPHIL,[2],6.67%
same,NUCLEATED RED BLOOD CELLS,[2],0.33 /100WBC
same,PLATELET COUNT,[2],1361.67 x10E3/uL
same,ALANINE AMINOTRANSFERASE,[2],48 u/L
same,ALBUMIN,[2],4.23 G/DL
same,ALKALINE PHOSPHATASE,[2],407 u/L
same,ASPARTATE AMINOTRANSFERASE,[2],87 u/L
same,BLOOD UREA NITROGEN,[2],18 mg/dL
same,CARBON DIOXIDE,[2],26.33 mmol/L
same,CHLORIDE,[2],107 MEQ/L
same,CHOLESTEROL,[2],76.33 mg/dL
same,CREATINE PHOSPHOKINASE,[2],445.33 u/L
same,CREATININE,[2],0.21 mg/dL
same,GLUCOSE,[2],165.33 mg/dL
same,LACTATE DEHYDROGENASE,[2],155 u/L
same,LIPASE,[2],9 u/L
same,PHOSPHORUS,[2],13.63 mg/dL
same,POTASSIUM,[2],6.07 MEQ/L
same,SODIUM,[2],145.9 MEQ/L
same,TOTAL BILIRUBIN,[2],0.17 mg/dL
same,TOTAL PROTEIN,[2],6.5 G/DL
same,URIC ACID,[2],2.07 mg/dL
same,ABSOLUTE BASOPHIL,[3],0 CELLS/uL
same,ABSOLUTE EOSINOPHIL,[3],0 CELLS/uL
same,ABSOLUTE LYMPHOCYTE,[3],8834.67 CELLS/uL
same,ABSOLUTE MONOCYTE,[3],232.67 CELLS/uL
same,ABSOLUTE SEGMENTED NEUTROPHIL,[3],799.33 CELLS/uL
same,BASOPHIL,[3],0%
same,EOSINOPHIL,[3],0%
same,ERYTHROCYTE COUNT,[3],5.53 x10E6/uL
same,HEMATOCRIT,[3],35.63%
same,HEMOGLOBIN,[3],13.37 G/DL
same,LEUKOCYTE COUNT,[3],9.87 x10E3/uL
same,LYMPHOCYTE,[3],89.67%
same,MEAN CORPUSCULAR HEMOGLOBIN,[3],24.17 pg
same,MEAN CORPUSCULAR HEMOGLOBIN CONCENTRATION,[3],37.57 G/DL
same,MEAN CORPUSCULAR VOLUME,[3],64.4 fL
same,MONOCYTE,[3],2.33%
same,NEUTROPHIL,[3],8%
same,NUCLEATED RED BLOOD CELLS,[3],0 /100WBC
same,PLATELET COUNT,[3],1043.67 x10E3/uL
same,ALANINE AMINOTRANSFERASE,[3],47 u/L
same,ALBUMIN,[3],4.5 G/DL
same,ALKALINE PHOSPHATASE,[3],362.67 u/L
same,ASPARTATE AMINOTRANSFERASE,[3],80.33 u/L
same,BLOOD UREA NITROGEN,[3],15.33 mg/dL
same,CARBON DIOXIDE,[3],28 mmol/L
same,CHLORIDE,[3],106 MEQ/L
same,CHOLESTEROL,[3],89.33 mg/dL
same,CREATINE PHOSPHOKINASE,[3],226.67 u/L
same,CREATININE,[3],0.24 mg/dL
same,GLUCOSE,[3],123 mg/dL
same,LACTATE DEHYDROGENASE,[3],186 u/L
same,LIPASE,[3],9.33 u/L
same,PHOSPHORUS,[3],11.47 mg/dL
same,POTASSIUM,[3],6.78 MEQ/L
same,SODIUM,[3],150.07 MEQ/L
same,TOTAL BILIRUBIN,[3],0.3 mg/dL
same,TOTAL PROTEIN,[3],6.13 G/DL
same,URIC ACID,[3],1 mg/dL
same,ABSOLUTE BASOPHIL,[4],0 CELLS/uL
same,ABSOLUTE EOSINOPHIL,[4],57.67 CELLS/uL
same,ABSOLUTE LYMPHOCYTE,[4],15287.67 CELLS/uL
same,ABSOLUTE MONOCYTE,[4],50.33 CELLS/uL
same,ABSOLUTE SEGMENTED NEUTROPHIL,[4],2437.67 CELLS/uL
same,BASOPHIL,[4],0%
same,EOSINOPHIL,[4],0.33%
same,ERYTHROCYTE COUNT,[4],5.86 x10E6/uL
same,HEMATOCRIT,[4],35.6%
same,HEMOGLOBIN,[4],13.2 G/DL
same,LEUKOCYTE COUNT,[4],17.83 x10E3/uL
same,LYMPHOCYTE,[4],85%
same,MEAN CORPUSCULAR HEMOGLOBIN,[4],22.53 pg
same,MEAN CORPUSCULAR HEMOGLOBIN CONCENTRATION,[4],37.07 G/DL
same,MEAN CORPUSCULAR VOLUME,[4],60.8 fL
same,MONOCYTE,[4],0.33%
same,NEUTROPHIL,[4],14.33%
same,NUCLEATED RED BLOOD CELLS,[4],0 /100WBC
same,PLATELET COUNT,[4],1437 x10E3/uL
same,ALANINE AMINOTRANSFERASE,[4],43.33 u/L
same,ALBUMIN,[4],4.3 G/DL
same,ALKALINE PHOSPHATASE,[4],276.33 u/L
same,ASPARTATE AMINOTRANSFERASE,[4],79.67 u/L
same,BLOOD UREA NITROGEN,[4],19.33 mg/dL
same,CARBON DIOXIDE,[4],25 mmol/L
same,CHLORIDE,[4],105 MEQ/L
same,CHOLESTEROL,[4],76.67 mg/dL
same,CREATINE PHOSPHOKINASE,[4],212.67 u/L
same,CREATININE,[4],0.29 mg/dL
same,GLUCOSE,[4],152 mg/dL
same,LACTATE DEHYDROGENASE,[4],226.67 u/L
same,LIPASE,[4],8.67 u/L
same,PHOSPHORUS,[4],12.57 mg/dL
same,POTASSIUM,[4],6.85 MEQ/L
same,SODIUM,[4],146.2 MEQ/L
same,TOTAL BILIRUBIN,[4],0.13 mg/dL
same,TOTAL PROTEIN,[4],6.7 G/DL
same,URIC ACID,[4],2.17 mg/dL
